Laboratory results taken from patent US20240391954A1, “MC4R AGONIST PEPTIDES” (The Regents of the University of Michigan, priority 2021, published 2024).
pEC50: −log10 of the molar value. Like-named read-outs stand apart in the source and are kept apart here. Positions of bridges follow the written chain, without caps; N, C: chain ends. Non-standard residues stand in square brackets, D forms with d. Residues, ends and D or L forms follow the SMILES beside them. Phe(4-Br) = N[C@@H](Cc1ccc(Br)cc1)C(=O)O; dPhe(4-Br) = N[C@H](Cc1ccc(Br)cc1)C(=O)O; hCit = NC(=O)NCCCC[C@H](N)C(=O)O; dTic = O=C(O)[C@H]1Cc2ccccc2CN1; Cit = NC(=O)NCCC[C@H](N)C(=O)O; Nle = CCCC[C@H](N)C(=O)O

Experiments:
human MC3R = target: T1, human MC3R (Homo sapiens, UniProt P41968); assay: split-luciferase cAMP sensor assay, agonist mode (measurement window 1), hMC3R; assay type: cell-based; details: agonist mode; for Emax: read-out: MC3R cAMP % max activation; for pEC50: read-out: MC3R cAMP EC50
T1 construct: expressed in transfected cells; host or cells: HEK-293 cells stably expressing the GScAMP22F split-luciferase cAMP sensor (parent reporter line from Promega); MC3R clone generated in-house, G418 selection
T1 sequence (P41968 whole entry): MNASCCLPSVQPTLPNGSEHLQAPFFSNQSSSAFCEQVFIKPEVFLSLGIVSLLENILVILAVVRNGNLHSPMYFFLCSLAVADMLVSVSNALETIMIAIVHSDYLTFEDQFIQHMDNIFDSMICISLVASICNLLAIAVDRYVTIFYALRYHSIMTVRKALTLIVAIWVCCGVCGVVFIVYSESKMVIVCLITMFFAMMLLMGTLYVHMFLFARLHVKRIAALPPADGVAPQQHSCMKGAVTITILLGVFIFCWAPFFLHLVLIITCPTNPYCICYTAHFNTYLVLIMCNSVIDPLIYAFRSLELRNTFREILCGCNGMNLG
Method: (§1) The stable cell lines were grown and maintained in selection media consisting of Dulbecco's modified Eagle media (DMEM) with 4.5 g/l D-glucose, and 4 mM L-glutamine (Thermo Fisher Scientific, Waltham, MA), supplemented with 10% fetal bovine serum, 100 units/ml penicillin, 100 μg/ml streptomycin, 2.5 μg/ml amphotericin B, 200 μg/ml hygromycin B (for positive selection of the GScAMP22f luciferase reporter), and Geneticin™ (G418) 700 μg/ml (for MC3R or MC4R selection). Actual serum concentration during the assay is estimated to be about 1%. Cell line identity is routinely verified by qPCR and MC3R-and MC4R-specific oligonucleotides.
(§2) The assay for the determination of the cAMP response in live cells was described previously. […] Cells were seeded at a density of 20,000 cells per well using 384-well poly-D lysine-coated, clear bottom, and black-wall assay plates (Corning Inc. Corning, NJ). Cells were allowed to attach to the plates for 18 to 24 h after which growth media was removed and 20 μl of 4% D-luciferin (Promega) in CO2 independent, serum-free medium (Thermo Fisher Scientific) was added to each well. […] Intracellular cAMP levels were measured using an FDSS 7000EX Functional Drug Screening System (Hamamatsu Photonics, Hamamatsu, Japan) in the Center for Chemical Genomics at the Life Sciences Institute. This instrument allowed the in-line addition of test-peptides and receptor agonists while simultaneously acquiring the luminescence signal from live cells. […] A submaximal forskolin (20 μM) concentration was also included to serve as a normalization reference to account for cell number variations and differences in assay transducer efficiency between cell lines.
(§3) With this set up it was possible to evaluate the direct effect of the test-peptides on the MC3R and MC4R cell lines during measurement window 1, while the antagonist profile in the presence of EC90 α-MSH was determined on measurement window 2. […] EC50 or IC50 potency values were determined by non-linear regression by fitting the data to a sigmoid four-parameter variable slope model using the GraphPad Prism version 8.4 software package (San Diego CA).

human MC4R = target: T2, human MC4R (Homo sapiens, UniProt P32245); assay: split-luciferase cAMP sensor assay, agonist mode (measurement window 1), hMC4R; assay type: cell-based; details: for Emax / pEC50 / MC4R cAMP % max activation: agonist mode; for Emax: read-out: MC4R cAMP % max activation; for pEC50: read-out: MC4R cAMP EC50
T2 construct: host or cells: HEK-293 cells stably expressing the GScAMP22F split-luciferase cAMP sensor and hMC4R, G418 selection
T2 sequence (P32245 whole entry): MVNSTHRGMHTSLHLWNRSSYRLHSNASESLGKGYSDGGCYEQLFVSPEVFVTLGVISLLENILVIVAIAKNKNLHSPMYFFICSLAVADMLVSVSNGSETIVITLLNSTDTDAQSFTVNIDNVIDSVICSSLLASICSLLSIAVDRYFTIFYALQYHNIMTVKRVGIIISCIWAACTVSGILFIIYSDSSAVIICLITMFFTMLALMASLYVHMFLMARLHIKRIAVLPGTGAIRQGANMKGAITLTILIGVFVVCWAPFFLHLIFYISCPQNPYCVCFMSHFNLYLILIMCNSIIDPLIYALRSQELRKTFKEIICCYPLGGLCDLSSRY
Method: as §1, §2, §3

[1] = HEK-293 cells stably expressing hMC4R

| SMILES | Emax (human MC3R; hMC3R stable cell line) [%] | MC4R selectivity vs MC1R (human MC4R) | MC4R selectivity vs MC3R (human MC4R) | Emax (human MC4R; hMC4R stable cell line) [%] | Emax (human MC4R; % maximal activation) [%] | also measured |
| --- | --- | --- | --- | --- | --- | --- |
| CC(=O)N[C@@H](CCCNC(=N)N)C(=O)N[C@H]1CSSC[C@@H](C(=O)N[C@@H](CCCCN)C(N)=O)NC(=O)[C@@H](Cc2c[nH]c3ccccc23)NC(=O)[C@H](CCCNC(=N)N)NC(=O)[C@@H](Cc2ccc(Br)cc2)NC(=O)[C@H](CCCNC(=N)N)NC(=O)[C@@H](C)NC1=O [CTX-1218, Arg-cyclo(Cys-D-Ala-Arg-D-Phe(4-Br)-Arg-D-Trp-Cys)-Lys] (Ac-RC[dA]R[dPhe(4-Br)]R[dW]CK-NH2; disulfide 2-8) | 16 | 1 | 1.85 | 77 | – | pEC50 (human MC3R; hMC3R stable cell line, unit inferred): 8.40; pEC50 (human MC4R; hMC4R stable cell line, unit inferred): 8.66 |
| CC(=O)N[C@@H](CCCNC(=N)N)C(=O)N[C@H]1CSSC[C@@H](C(N)=O)NC(=O)[C@@H](Cc2c[nH]c3ccccc23)NC(=O)[C@H](CCCNC(=N)N)NC(=O)[C@@H](Cc2ccc(O)cc2)NC(=O)[C@H](CCCNC(=N)N)NC(=O)[C@@H](C)NC1=O [CTX-1237, Arg-cyclo(Cys-D-Ala-Arg-D-Tyr-Arg-D-Trp-Cys)] (Ac-RC[dA]R[dY]R[dW]C-NH2; disulfide 2-8 (inferred)) | 19 | 0.24 | 0.08 | 61 | – | – |
| CC(=O)N[C@@H](CCCNC(=N)N)C(=O)N[C@H]1CSSC[C@@H](C(N)=O)NC(=O)[C@@H](Cc2c[nH]c3ccccc23)NC(=O)[C@H](CCCNC(=N)N)NC(=O)[C@@H](Cc2ccc(Br)cc2)NC(=O)[C@@H]2CCCN2C(=O)[C@@H](C)NC1=O [CTX-1249, Arg-cyclo(Cys-D-Ala-Pro-D-Phe(4-Br)-Arg-D-Trp-Cys)] (Ac-RC[dA]P[dPhe(4-Br)]R[dW]C-NH2; disulfide 2-8) | 1.9 | 5.08 | 0.45 | 22 | – | pEC50 (human MC4R; hMC4R stable cell line): 7.85 |
| CC(=O)N[C@@H](CCCNC(=N)N)C(=O)N[C@H]1CSSC[C@@H](C(N)=O)NC(=O)[C@H](Cc2c[nH]c3ccccc23)NC(=O)[C@H](CCCNC(=N)N)NC(=O)[C@H](Cc2ccc(Br)cc2)NC(=O)[C@H](CCCNC(=N)N)NC(=O)[C@@H](C)NC1=O [CTX-1212] (Ac-RC[dA]R[Phe(4-Br)]RWC-NH2; disulfide 2-8) | 0.1 | 0.07 | 0.07 | 55 | – | pEC50 (human MC3R; hMC3R stable cell line): 7.55 |
| CCCC[C@H](NC(=O)[C@H](CCCNC(=N)N)NC(C)=O)C(=O)N[C@H]1CSSC[C@@H](C(N)=O)NC(=O)[C@H](Cc2c[nH]c3ccccc23)NC(=O)[C@H](CCCNC(=N)N)NC(=O)[C@@H](Cc2ccc(Br)cc2)NC(=O)[C@H](CCCNC(=N)N)NC1=O [CTX-1230, Arg-Nle-cyclo(Cys-Arg-D-Phe(4-Br)-Arg-Trp-Cys)] (Ac-R[Nle]CR[dPhe(4-Br)]RWC-NH2; disulfide 3-8) | – | 0.18 | 1.95 | – | – | MC3R cAMP % max activation (human MC3R; hMC3R stable cell line): (23%); pEC50 (human MC3R; hMC3R stable cell line): 8.41; MC4R cAMP % max activation (human MC4R; hMC4R stable cell line): (27%); pEC50 (human MC4R; hMC4R stable cell line): 8.85 |
| CC(=O)N[C@@H](CCCNC(=N)N)C(=O)N[C@H]1CSSC[C@@H](C(N)=O)NC(=O)[C@H]2Cc3ccccc3CN2C(=O)[C@H](CCCNC(=N)N)NC(=O)[C@@H](Cc2ccc(Br)cc2)NC(=O)[C@H](CCCNC(=N)N)NC(=O)[C@@H](C)NC1=O [CTX-1256, Arg-cyclo(Cys-D-Ala-Arg-D-Phe(4-Br)-Arg-D-Tic-Cys)] (Ac-RC[dA]R[dPhe(4-Br)]R[dTic]C-NH2; disulfide 2-8 (inferred)) | 17 | 0.003 | 0.08 | 29 | – | – |
| CC(=O)N[C@@H](CCCNC(=N)N)C(=O)N[C@H]1CSSC[C@@H](C(N)=O)NC(=O)[C@@H](Cc2c[nH]c3ccccc23)NC(=O)[C@H](CCCNC(=N)N)NC(=O)[C@@H](Cc2c[nH]c3ccccc23)NC(=O)[C@H](CCCNC(=N)N)NC(=O)[C@@H](C)NC1=O [CTX-1244, Arg-cyclo(Cys-D-Ala-Arg-D-Trp-Arg-D-Trp-Cys)] (Ac-RC[dA]R[dW]R[dW]C-NH2; disulfide 2-8 (inferred)) | – | 0.26 | 0.11 | – | – | MC3R cAMP % max activation (human MC3R; hMC3R stable cell line): (10%); pEC50 (human MC3R; hMC3R stable cell line): 7.89; MC4R cAMP % max activation (human MC4R; hMC4R stable cell line): (42%); pEC50 (human MC4R; hMC4R stable cell line): 6.96 |
| CC(=O)N[C@@H](CCCNC(=N)N)C(=O)N[C@H]1CSSC[C@@H](C(N)=O)NC(=O)[C@H](Cc2c[nH]c3ccccc23)NC(=O)[C@@H](CCCNC(=N)N)NC(=O)[C@@H](Cc2ccccc2)NC(=O)[C@H](CCCNC(=N)N)NC(=O)[C@@H](C)NC1=O [CTX-1282, Arg-cyclo(Cys-D-Ala-Arg-D-Phe-D-Arg-Trp-Cys)] (Ac-RC[dA]R[dF][dR]WC-NH2; disulfide 2-8 (inferred)) | 4.2 | 0.14 | 0.38 | 72 | – | – |
| CC(=O)N[C@@H](CCCNC(=N)N)C(=O)N[C@H]1CSSC[C@@H](C(N)=O)NC(=O)[C@H](Cc2c[nH]c3ccccc23)NC(=O)[C@H](CCCNC(=N)N)NC(=O)[C@H](Cc2ccccc2)NC(=O)[C@H](Cc2c[nH]cn2)NC(=O)[C@@H](C)NC1=O [CTX-1213, Arg-cyclo(Cys-D-Ala-His-Phe-Arg-Trp-Cys)] | – | – | – | – | 104 | Emax (human MC3R; % maximal activation): 97% |
| CC(=O)N[C@@H](CCCNC(=N)N)C(=O)N[C@H]1CSSC[C@@H](C(N)=O)NC(=O)[C@@H](Cc2c[nH]c3ccccc23)NC(=O)[C@@H](CCCNC(=N)N)NC(=O)[C@@H](Cc2ccc(Br)cc2)NC(=O)[C@H](CCCNC(=N)N)NC(=O)[C@@H](C)NC1=O [CTX-1252, Arg-cyclo(Cys-D-Ala-Arg-D-Phe(4-Br)-D-Arg-D-Trp-Cys)] (Ac-RC[dA]R[dPhe(4-Br)][dR][dW]C-NH2; disulfide 2-8 (inferred)) | 1.1 | 0.04 | 0.06 | 4.4 | – | – |
| CCCC[C@H](NC(=O)[C@H](CCCNC(=N)N)NC(C)=O)C(=O)N[C@H]1CSSC[C@@H](C(N)=O)NC(=O)[C@H](Cc2c[nH]c3ccccc23)NC(=O)[C@H](CCCNC(=N)N)NC(=O)[C@@H](Cc2ccccc2)NC(=O)[C@H](CCCCNC(N)=O)NC1=O [CTX-1618, Arg-Nle-cyclo(Cys-homo-Cit-D-Phe-Arg-Trp-Cys)] (Ac-R[Nle]C[hCit][dF]RWC-NH2; disulfide 3-8 (inferred)) | – | – | – | – | 94 | pEC50 (human MC4R; [1]): 8.74 |
| CC(=O)N[C@@H](CCCNC(=N)N)C(=O)N[C@H]1CSSC[C@@H](C(N)=O)NC(=O)[C@@H](Cc2c[nH]c3ccccc23)NC(=O)[C@H](CCCNC(=N)N)NC(=O)[C@@H](Cc2ccccc2)NC(=O)[C@H](CCCNC(N)=O)NC(=O)[C@H](C)NC1=O [CTX-1288, Arg-cyclo(Cys-Ala-Cit-D-Phe-Arg-D-Trp-Cys)] (Ac-RCA[Cit][dF]R[dW]C-NH2; disulfide 2-8) | – | – | – | – | 87 | – |
| CCCC[C@H](NC(=O)[C@H](CCCNC(=N)N)NC(C)=O)C(=O)N[C@H]1CSSC[C@@H](C(N)=O)NC(=O)[C@H](Cc2ccccc2)NC(=O)[C@H](CCCNC(=N)N)NC(=O)[C@@H](Cc2ccccc2)NC(=O)[C@H](Cc2c[nH]cn2)NC1=O [CTX-1625, Arg-Nle-cyclo(Cys-His-D-Phe-Arg-Phe-Cys)] (Ac-R[Nle]CH[dF]RFC-NH2; disulfide 3-8) | – | – | – | – | 101 | – |
| CCCC[C@H](NC(=O)[C@H](CCCNC(=N)N)NC(C)=O)C(=O)N[C@H]1CSSC[C@@H](C(N)=O)NC(=O)[C@H](Cc2c[nH]c3ccccc23)NC(=O)[C@H](CCCNC(=N)N)NC(=O)[C@@H](Cc2ccccc2)NC(=O)[C@H](CCCNC(N)=O)NC1=O [CTX-1607, Arg-Nle-cyclo(Cys-Cit-D-Phe-Arg-Trp-Cys)] (Ac-R[Nle]C[Cit][dF]RWC-NH2; disulfide 3-8 (inferred)) | – | – | – | – | – | Emax (human MC3R; % maximal activation): 47% |
| CC(=O)N[C@@H](CCCNC(=N)N)C(=O)N[C@H]1CSSC[C@@H](C(N)=O)NC(=O)[C@H](Cc2c[nH]c3ccccc23)NC(=O)[C@H](CCCNC(=N)N)NC(=O)[C@@H](Cc2ccccc2)NC(=O)[C@H](CCCNC(=N)N)NC(=O)CNC1=O [CTX-1293, Arg-cyclo(Cys-Gly-Arg-D-Phe-Arg-Trp-Cys)] (Ac-RCGR[dF]RWC-NH2; disulfide 2-8) | – | – | – | – | 87 | pEC50 (human MC4R; [1]): 9.60 |
